Counter-ions that a name gives are not always drawn. Like-named read-outs stand apart in the source and are kept apart here.
Experiments:
[1] = test system: uptake of 14C-5HT in synaptosomes; experiment: Inhibition of Serotonine uptake in vivo (synaptosomes prepared after intraperitoneal administration); details: Rattus norvegicus, ip, 5 mg/kg intraperitoneal, female rats 19 to 21 days old
Procedure: (§1) The inhibition of serotonine (5HT) uptake was measured in impure synaptosomes prepared from the entire brain of a female rat 19 to 21 days old using the technique of Kannengiesser et al [Biochemical Pharmacology, Vol. 22, (1973) p. 73].
The tested products were intraperitoneally administered to a groups of female rats 19 to 21 days old at doses of 5 mg/kg. After 1 hour or 24 hours, the brain was removed and synaptosomes were prepared and placed in an incubator in the presence of 14 C-5HT as indicated in the previous test.

[2] = test system: serotonine (5HT) uptake in synaptosomes; experiment: Inhibition of Serotonine uptake in vitro; assay type: biochemical; details: impure synaptosomes from entire brain of female rat 19 to 21 days old; 37° C., 5 minutes; 14C-5HT 10^-7 M; read-out: Inhibiting concentration IC50 of 14C-5HT uptake
Procedure: as §1

Acute toxicity = details: mouse, in vivo, ip; mice, intraperitoneal, determined 48 hours later; read-out: DL50
Procedure: The DL50 dose which kills 50% of mice after intraperitoneal administration of the test compound was determined 48 hours later and the DL50 for the compounds is reported in Table III.

dogs = experiment: Anorexigenic activity; assay type: in vivo, dog; details: oral (gelules), 10 mg/kg, starved about 15 hours
Procedure: This activity was determined on dogs by the method of Adams et al [J. Pharm. Sci., Vol. 53 (1964), p. 1405] in which the animals received as food exclusively U.A.R. mash with a base of 800 g per day per dog. On the day of the test of a presumed anorexigenic agent, the daily individual ration of the dogs was divided into approximately equal small balls (15 to 20 g) which were offered to the dogs every 10 minutes for 8 hours. Normally the animals regularly accept the small balls successively when they are presented. […] The hourly number of refusal is determined in the animals treated with the same dose and is expressed as a percentage of the total hourly number of small balls presented per […]. At the start of the test, the animals had been starved for about 15 hours although they had drinking water available. They are deprived of water during the test. The test was effected with a group of 7 bastard dogs both male and female weighing between 11.4 and 14 kg (12.1 kg average) selected as a function of their response to a weak dose (5 mg/kg) of fenfluramine.

[3] = 1 hour, read-out: % inhibition of 14C-5HT uptake after 1 Hour
[4] = 24 hours, read-out: % inhibition of 14C-5HT uptake after 24 Hours

| SMILES | inhibition at 5 mg/kg [1, 3] | inhibition at 5 mg/kg [1, 4] | IC50 [2] | LD50 at 48 h (Acute toxicity) | oral anorexigenic activity (refusal of food balls) (dogs) |
| --- | --- | --- | --- | --- | --- |
| CN(C)[C@H]1CCc2ccccc2[C@H](Oc2ccc([N+](=O)[O-])cc2)C1.Cl (relative stereo) [Example 4, trans N,N-dimethyl-5-[4-nitrophenoxy]-6,7,8,9-tetrahydro-5H-benzocycloheptene-7-amine hydrochloride] | 61 ± 2% | 39 ± 4% | 83 nM | 100 mg/kg |  |
| CN(C)[C@@H]1CCc2ccccc2[C@H](Oc2ccc(Br)cc2)C1.Cl (relative stereo) [Example 7, cis N,N-dimethyl-5-[4-bromophenoxy]-6,7,8,9-tetrahydro-5H-benzocyclohepten-7-amine hydrochloride] | 40 ± 3% | 65 ± 2% | 320 nM | 150 mg/kg |  |
| CN[C@@H]1CCc2ccccc2[C@H](Oc2ccc(C(F)(F)F)cc2)C1.Cl (relative stereo) [Example 6, cis N-methyl-5-[4-trifluoromethylphenoxy]-6,7,8,9-tetrahydro-5H-benzocycloheptene-7-amine hydrochloride] | 41 ± 3% | 61 ± 3% | 1900 nM | 400 mg/kg |  |
| CN(C)[C@H]1CCc2ccc(Cl)cc2[C@@H](Oc2ccc([N+](=O)[O-])cc2)C1 (relative stereo) [Example 19, cis N,N-dimethyl-3-chloro-5-[4-nitrophenoxy]-6,7,8,9-tetrahydro-5H-benzocyclohepten-7-amino hydrochloride] |  |  | 7100 nM | > 200 mg/kg |  |
| CN(C)[C@@H]1CCc2ccccc2[C@H](Oc2ccc(N)cc2)C1.Cl.Cl (relative stereo) [Example 2, cis N,N-dimethyl-5-[4-aminophenoxy]-6,7,8,9-tetrahydro-5H-benzocycloheptene-7-amine dihydrochloride] |  |  | 14000 nM | 200 mg/kg |  |
| COc1ccccc1O[C@@H]1C[C@H](N(C)C)CCc2ccccc21 (relative stereo) [Example 10, cis N,N-dimethyl-5-[2-methoxyphenoxy]-6,7,8,9-tetrahydro-5H-benzocyclohepten-7-amine hydrochloride] |  |  | 1300 nM |  |  |
| CN(C)[C@H]1CCc2ccccc2[C@@H](Oc2ccc([N+](=O)[O-])cc2)C1 (relative stereo) [Example 1, fumarate of cis N,N-dimethyl-5-[4-nitrophenyloxy]-6,7,8,9-tetrahydro-5H-benzocycloheptene-7-amine] | 58 ± 4% | 67 ± 2% | 340 nM | 100 mg/kg | important oral anorexigenic activity |
| CN(C)[C@@H]1CCc2ccccc2[C@H](Oc2ccccc2C(F)(F)F)C1.Cl (relative stereo) [Example 5, cis N,N-dimethyl-5-[2-trifluoromethylphenoxy]-6,7,8,9-tetrahydro-5H-benzocycloheptene-7-amine hydrochloride] |  |  | 2300 nM | 200 mg/kg |  |
| CN(C)[C@@H]1CCc2ccccc2[C@H](Oc2ccc(C(F)(F)F)cc2)C1.Cl (relative stereo) [Example 3, cis N,N-dimethyl-5-[4-trifluoromethylphenoxy]-6,7,8,9-tetrahydro-5H-benzocycloheptene-7-amine hydrochloride] |  |  | 760 nM | 150 mg/kg |  |
| CN(C)[C@@H]1CCc2ccccc2[C@H](Oc2ccccc2[N+](=O)[O-])C1.Cl (relative stereo) [Example 8, cis N,N-dimethyl-5-[2-nitrophenoxy]-6,7,8,9-tetrahydro-5H-benzocyclohepten-7-amine hydrochloride] |  |  | 4000 nM | 150 mg/kg |  |
| CN(C)[C@H]1CCc2ccc(Cl)cc2[C@H](Oc2ccc([N+](=O)[O-])cc2)C1.Cl (relative stereo) [Example 18, trans N,N-dimethyl-3-chloro-5-[4-nitrophenoxy]-6,7,8,9-tetrahydro-5H-benzocyclohepten-7-amine hydrochloride] |  |  | 1500 nM | 100 mg/kg |  |
| COc1ccc(O[C@@H]2C[C@H](N(C)C)CCc3ccccc32)cc1 (relative stereo) [Example 11, cis N,N-dimethyl-5-[4-methoxyphenoxy]-6,7,8,9-tetrahydro-5H-benzocyclohepten-7-amine hydrochloride] |  |  | 1300 nM |  |  |
| CN(C)[C@H]1CCc2ccccc2[C@@H](Oc2ccc([N+](=O)[O-])c(C(F)(F)F)c2)C1 (relative stereo) [Example 17, cis-N,N-dimethyl-5-[4-nitro-3-trifluoromethylphenoxy]-6,7,8,9,-tetrahydro-5H-benzocyclohepten-7-amine] |  |  | 950 nM | > 400 mg/kg |  |

Source: patent publication US4177292A, “Novel 5H-benzocyclohepten-7-amines” (Roussel Uclaf, priority 1977, dated 1979)
